Source: patent US5846720A, “Methods of determining chemicals that modulate expression of genes associated with cardiovascular disease” (Oncogene Science, Inc., priority 1996, dated 1998)

What was measured:
hGH promoter = experiment: hGH promoter/luciferase reporter assay (high-throughput screen I), 532 cells; type: cell-based, rat; conditions: Table 2, 6 h incubation; for hGH fold inhibition relative to solvent control: transcriptional inhibitors; for hGH fold induction relative to solvent control: transcriptional activators
Excerpt: 6. a GC rat pituitary cell line, transfected with the growth hormone reporter plasmid, designated 532, deposited under ATCC Accession No. CRL 10663.

MMTV promoter = experiment: MMTV promoter/luciferase reporter assay (high-throughput screen I, control for specificity), M10 cells; type: cell-based, mouse; conditions: Table 2, 6 h incubation; for MMTV fold inhibition relative to solvent control: transcriptional inhibitors; for MMTV fold induction relative to solvent control: transcriptional activators, original high-throughput assay
Method: pMluci and pSV2Neo, an antibiotic resistance plasmid (84), were co-transfected into NIH/3T3 mouse fibroblast cells using the calcium phosphate precipitation method (85) with a commercially available kit (Pharmacia, Piscataway N.J.). Two days later, cells were transferred to media containing 0.4 mg/ml G418 and were grown for an additional 10-14 days. G418-resistant clones were isolated by standard methods. Once sufficient cell numbers were obtained, clones were analyzed based on several criteria: constitutive luciferase production, induction of luciferase expression by dexamethasone ([…], Sigma, St. Louis, Mo.), satisfactory attachment to microtiter plates used in the high-throughput screen (see section G) and acceptable standard deviation in multiple luciferase expression assays (see below for assay protocol). This analysis was carried out using the luciferase assay conditions described above. Of the clones which satisfied the above criteria for the high throughput screen, one clone, M10, was selected for use.

G-CSF promoter = experiment: G-CSF promoter/luciferase reporter assay (high-throughput screen I), G21 cells; conditions: Table 2, 6 h incubation; for GCSF fold inhibition relative to solvent control: transcriptional inhibitors; for GCSF fold induction relative to solvent control: transcriptional activators

SMILES | hGH fold inhibition relative to solvent control (hGH promoter) [fold] | MMTV fold inhibition relative to solvent control (MMTV promoter) [fold] | GCSF fold inhibition relative to solvent control (G-CSF promoter) [fold] | hGH fold induction relative to solvent control (hGH promoter) [fold] | MMTV fold induction relative to solvent control (MMTV promoter) [fold] | GCSF fold induction relative to solvent control (G-CSF promoter) [fold]
O=S(=O)(O)c1ccc(-c2ccnc(-c3nnc(-c4ccc(S(=O)(=O)O)cc4)c(-c4ccc(S(=O)(=O)O)cc4)n3)c2)cc1 [Chemical 1648] | 7.69 | 1.00 | 0.86 |  |  | 
COC(=O)CP(=O)(OCC(F)(F)F)OCC(F)(F)F [Chemical 1651] | 3.57 | 0.70 | 0.69 |  |  | 
O=C(O)c1cc(C(F)(F)F)ccc1C(F)(F)F [Chemical 1655] | 4.76 | 0.81 | 0.54 |  |  | 
OCC1CC2C3CC(CO)C(C3)C2C1 (stereo not drawn) [Chemical 1678] |  |  |  | 7.08 | 0.89 | 0.36
N#Cc1cccc(Br)c1 [Chemical 1703] | 10.00 | 0.90 | 0.76 |  |  | 
N#Cc1ccc(Br)cc1 [Chemical 1704] | 4.16 | 0.94 | 0.77 |  |  | 
O=C(c1ccccc1)c1ccc(Br)cc1 [Chemical 1705] | 14.28 | 0.62 | 0.54 |  |  | 
Cc1cc(=O)oc2c(CN(CC(=O)O)CC(=O)O)c(O)ccc12 [Chemical 1712] | 8.33 | 0.94 | 0.74 |  |  | 
CC1(C)[C@H]2CC[C@]1(C)C(=O)C2 [Chemical 1720] | 4.76 | 0.66 | 0.65 |  |  | 
CCOC(=O)c1c[nH]c(=S)[nH]c1=O [Chemical 1740] |  |  |  | 17.77 | 0.87 | 0.74
N[C@@H](CCCCNC(=O)OCc1ccccc1)C(=O)O [Chemical 1747] |  |  |  | 6.16 | 0.86 | 0.78
Cc1cc(=O)oc2cc(OCC(=O)O)ccc12 [Chemical 1764] | 7.14 | 0.82 | 0.55 |  |  | 
Cc1c(C(=O)O)c(O)cc2c1C(=O)c1c(O)c([C@@H]3O[C@H](CO)[C@@H](O)[C@H](O)[C@H]3O)c(O)c(O)c1C2=O [Chemical 1770] | 10.00 | 0.57 | 0.54 |  |  | 
NCCC(=O)N[C@@H](Cc1cnc[nH]1)C(=O)O [Chemical 1771] | 10.00 | 0.72 | 0.71 |  |  | 
Cc1cc(C2(c3cc(C)c(O)c(CN(CC(=O)O)CC(=O)O)c3)OC(=O)c3ccccc32)cc(CN(CC(=O)O)CC(=O)O)c1O [Chemical 1773] | 10.00 | 0.67 | 0.62 |  |  | 
N=c1cc2oc3cc(N)ccc3nc-2c2ccccc12 [Chemical 1776] |  |  |  | 0.15 | 1.36 | 3.50
CN(C)C(=S)SCC#N [Chemical 1793] |  |  |  | 0.52 | 1.21 | 9.50
O=C(O)C1CCC1 [Chemical 1804] |  |  |  | 9.41 | 0.49 | 1.05
O=c1[nH]c(=O)c2nc3ccccc3nc2[nH]1 [Chemical 1890] | 5.26 | 0.58 | 0.80 |  |  | 
Nc1c2ccccc2nc2ccccc12 [Chemical 1904] |  |  |  | 0.54 | 0.82 | 4.12
Brc1cccc(-c2ccccc2)c1 [Chemical 1994] |  |  |  | 0.34 | 0.63 | 3.29

SMILES | hGH fold inhibition relative to solvent control (hGH promoter) [fold] | MMTV fold inhibition relative to solvent control (MMTV promoter) [fold] | GCSF fold inhibition relative to solvent control (G-CSF promoter) [fold] | hGH fold induction relative to solvent control (hGH promoter) [fold] | MMTV fold induction relative to solvent control (MMTV promoter) [fold] | GCSF fold induction relative to solvent control (G-CSF promoter) [fold]
CC(C)(C)c1ccc(Br)cc1 [Chemical 2001] |  |  |  | 0.74 | 1.12 | 3.11
Cc1n[nH]c(C)c1Br [Chemical 2009] | 0.57 | 0.64 | 3.70 |  |  | 
Nc1c(Br)cc([N+](=O)[O-])cc1[N+](=O)[O-] [Chemical 2010] | 0.63 | 3.57 | 0.80 |  |  | 
COc1c(F)cc(Br)cc1[N+](=O)[O-] [Chemical 2030] |  |  |  | 0.67 | 0.87 | 5.53
O=C(O)c1ccc(Br)o1 [Chemical 2035] | 7.14 | 0.89 | 0.57 |  |  | 
Nc1nc2c(nc(Br)n2[C@@H]2O[C@H](CO)[C@@H](O)[C@H]2O)c(=O)[nH]1 [Chemical 2036] | 4.34 | 0.81 | 0.58 |  |  | 
CCCCCCCCCCCCCCCCBr [Chemical 2037] | 4.00 | 0.50 | 0.51 |  |  | 
COc1cc2oc(=O)cc(CBr)c2cc1OC [Chemical 2064] |  |  |  | 1.10 | 2.53 | 0.82
Cc1n[nH]cc1Br [Chemical 2082] | 0.65 | 1.23 | 5.26 |  |  | 
CC(CCl)CBr (stereo not drawn) [Chemical 2096] |  |  |  | 0.61 | 0.89 | 3.27
ClCCCCCBr [Chemical 2097] |  |  |  | 0.88 | 1.22 | 5.09
OCc1cccc(Cl)c1 [Chemical 2121] | 0.40 | 1.14 | 4.76 |  |  | 
ClCc1ccc(Cl)cc1 [Chemical 2129] |  |  |  | 0.75 | 0.95 | 3.23
O=C1CCCCC1Cl (stereo not drawn) [Chemical 2148] |  |  |  | 0.92 | 2.82 | 0.45
O=C(N[C@H](CO)[C@H](O)c1ccc([N+](=O)[O-])cc1)C(Cl)Cl [Chemical 2191] |  |  |  | 0.35 | 7.32 | 0.37
CC(=O)n1ccnc1 [Chemical #58, 1-Acetylimidazole] |  |  |  | 0.17 | 0.42 | 6.03
Nc1nc(=O)n([C@H]2C[C@H](O)[C@@H](CO)O2)cc1Br [Chemical #542, 5-Bromo-2'-deoxycytidine] |  |  |  | 1.08 | 1.26 | 6.28
O=c1[nH]c(=O)n([C@H]2C[C@H](O)[C@@H](CO)O2)cc1Br [Chemical #543, 5-Bromo-2'-deoxyuridine] |  |  |  | 0.72 | 0.98 | 7.17
CC(=O)N(C)c1ccc(N)cc1 [Chemical #1374, 4'-Amino-N-methyl-acetanilide] |  |  |  | 0.05 | 1.05 | 11.03
CN(C)c1ccc(C(=C2C=CC(=[N+](C)C)C=C2)c2ccc(N(C)C)cc2)cc1 [Chemical #1780, Crystal Violet] |  |  |  | 0.38 | 1.15 | 20.39
